Each structure is given as a SMILES string.

One assay has as its target T1, hOCT1 (Homo sapiens, UniProt O15245).
T1 construct: expressed in transfected cells; gift of H. Koepsell
T1 sequence (O15245 1-554): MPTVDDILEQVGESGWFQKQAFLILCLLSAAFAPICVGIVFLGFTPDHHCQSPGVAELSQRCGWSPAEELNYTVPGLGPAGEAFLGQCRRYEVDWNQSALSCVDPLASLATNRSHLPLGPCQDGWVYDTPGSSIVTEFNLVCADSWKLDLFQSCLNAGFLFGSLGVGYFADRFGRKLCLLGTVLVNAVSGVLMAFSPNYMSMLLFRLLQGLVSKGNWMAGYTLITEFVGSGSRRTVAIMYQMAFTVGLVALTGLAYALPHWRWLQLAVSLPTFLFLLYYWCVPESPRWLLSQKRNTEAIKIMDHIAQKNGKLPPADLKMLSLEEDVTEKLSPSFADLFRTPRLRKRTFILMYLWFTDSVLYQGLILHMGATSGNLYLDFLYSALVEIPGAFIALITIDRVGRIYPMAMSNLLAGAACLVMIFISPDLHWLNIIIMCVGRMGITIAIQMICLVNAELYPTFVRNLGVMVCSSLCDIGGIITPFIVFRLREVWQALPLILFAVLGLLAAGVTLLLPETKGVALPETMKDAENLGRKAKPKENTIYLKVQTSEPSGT
The experiment in a line: Inhibition of ASP+ uptake in HEK 293 cells expressing hOCT1. Format: cell-based. The following applies: HEK 293 hOCT1, 1 μM ASP+. As to the method:
(§1) The interaction of phenanthriplatin with transporters for organic cations (OCT1-3, MATE1, and MATE2K) was investigated by measuring its effects on the uptake of the fluorescent organic cation 4-(4-dimethylamino)styryl-N-methylpyridinium (ASP^+). Microfluorometric measurements of ASP^+ uptake were performed with a fluorescence plate reader (Infinity 200, Tecan, Crailsheim, Germany; excitation at 465 nm, emission at 590 nm) as described previously for cultured HEK 293 cells (Wilde et al., [2009]). Before measurements, the culture medium in the wells of the 96 well microtiter plate containing HEK 293 cells was replaced by a HCO3- -free Ringer-like solution containing (in mM) NaCl 145, K2HPO4 1.6, KH2PO4 0.4, D-glucose 5, MgCl2 1, calcium gluconate 1.3, and pH adjusted to 7.4. Fluorescence was measured dynamically at 37°C in each well before and after ASP^+ addition to HCO3- -free Ringer-like solution, alone or together with increasing phenanthriplatin concentrations, and plotted versus time. ASP^+ (final concentration 1 or 10 μM for experiments with OCTs or MATEs, respectively) was added after the third sampling interval. Emission from the complete area of the well bottom was analyzed four times and averaged for each well. […] Background fluorescence was measured for each plate in wells with identical solutions containing no cells and subtracted from each well containing cells. Experiments were performed with cells from one passage of the same day with controls and test replicates in the same plate.
(§2) Data are presented as mean values ± SEM, with (n) referring to the number of wells. IC50 values defined as the concentration of platinum agent required to inhibit uptake of ASP^+ by 50% and EC50 values used to assess cell viability were obtained by sigmoidal concentration-response curve fitting using GraphPad Prism, Version 5.3 (GraphPad Software, San Diego, USA). […] For multiple comparisons, ANOVA with Bonferroni post-test was used. A P-value < 0.05 was considered statistically significant.

In another assay the target is T2, mOCT1 (Mus musculus, UniProt O08966).
T2 construct: expressed in transfected cells
T2 sequence (O08966 1-556): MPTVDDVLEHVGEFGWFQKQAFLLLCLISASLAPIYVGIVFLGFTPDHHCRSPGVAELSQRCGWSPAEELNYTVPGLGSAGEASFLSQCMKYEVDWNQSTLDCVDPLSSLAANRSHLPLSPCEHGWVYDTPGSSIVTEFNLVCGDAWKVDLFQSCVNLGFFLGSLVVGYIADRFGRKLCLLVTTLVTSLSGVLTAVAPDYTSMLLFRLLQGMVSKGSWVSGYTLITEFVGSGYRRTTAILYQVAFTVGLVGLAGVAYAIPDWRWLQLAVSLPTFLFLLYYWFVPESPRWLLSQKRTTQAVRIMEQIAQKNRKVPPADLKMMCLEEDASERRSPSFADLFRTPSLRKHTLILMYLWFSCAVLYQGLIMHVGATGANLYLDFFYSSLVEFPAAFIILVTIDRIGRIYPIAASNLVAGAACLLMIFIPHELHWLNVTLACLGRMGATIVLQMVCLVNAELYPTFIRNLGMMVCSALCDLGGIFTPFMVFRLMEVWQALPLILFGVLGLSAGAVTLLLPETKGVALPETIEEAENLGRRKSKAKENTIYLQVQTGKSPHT
In words: Inhibition of ASP+ uptake in HEK 293 cells expressing mOCT1. Format: cell-based, murine. The following applies: HEK 293 mOCT1, 1 μM ASP+. As to the method: as §1, with “Experiments were performed with cells from one passage of the same day with controls and test replicates in the same plate.” left out

A further assay deals with T3, hMATE1 (Homo sapiens, UniProt Q96FL8).
T3 construct: expressed in transfected cells
T3 sequence (Q96FL8 1-570): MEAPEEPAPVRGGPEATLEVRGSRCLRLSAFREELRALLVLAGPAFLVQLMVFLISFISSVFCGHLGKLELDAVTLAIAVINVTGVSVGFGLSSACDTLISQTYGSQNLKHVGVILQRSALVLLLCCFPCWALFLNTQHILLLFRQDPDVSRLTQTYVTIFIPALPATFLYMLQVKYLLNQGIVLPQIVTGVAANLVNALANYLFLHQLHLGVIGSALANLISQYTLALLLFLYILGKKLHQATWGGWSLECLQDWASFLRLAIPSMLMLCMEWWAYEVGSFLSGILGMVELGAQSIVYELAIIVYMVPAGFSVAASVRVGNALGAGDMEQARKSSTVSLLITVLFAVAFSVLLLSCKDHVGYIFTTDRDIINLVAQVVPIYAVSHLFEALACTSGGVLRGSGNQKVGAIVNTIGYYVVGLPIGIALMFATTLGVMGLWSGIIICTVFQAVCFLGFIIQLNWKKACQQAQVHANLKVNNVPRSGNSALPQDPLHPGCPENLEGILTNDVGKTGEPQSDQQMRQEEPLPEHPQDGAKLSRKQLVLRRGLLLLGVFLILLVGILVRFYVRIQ
In words: Inhibition of ASP+ uptake in HEK 293 cells expressing hMATE1. Format: cell-based. The following applies: HEK 293 hMATE1, 10 μM ASP+. As to the method: as §1, §2

As to `N.N.[Cl][Pt+].c1ccc2c(c1)cnc1ccccc12` [phenanthriplatin, cis-[Pt(NH3)2Cl(phenanthridine)]^+], the IC50 (usually the concentration that gives 50% inhibition) was determined as 19 µM at hOCT1, 17 µM against mOCT1 and 101 µM at hMATE1. For the same compound, the “logIC50 (logEC50) ± SEM for inhibition of ASP+ uptake” value at hOCT1 is recorded as −4.72 ± 0.21; on mOCT1, −4.77 ± 0.22; on hMATE1 it was −3.99 ± 0.21.
